This passage reports IC50 results from US8623857B2, “N-phenyl imidazole carboxamide inhibitors of 3-phosphoinositide-dependent protein kinase-1” (Merck Sharp & Dohme Corp., priority 2010, dated 2014).

Structures are written as SMILES.

The first experiment addresses T1, recombinant human PDK1 (Homo sapiens, UniProt O15530).
T1 construct: containing amino acids 51-556 of the human PDK1 enzyme; made in house; host or cells: Sf9 insect cells
T1 sequence (O15530 51-556): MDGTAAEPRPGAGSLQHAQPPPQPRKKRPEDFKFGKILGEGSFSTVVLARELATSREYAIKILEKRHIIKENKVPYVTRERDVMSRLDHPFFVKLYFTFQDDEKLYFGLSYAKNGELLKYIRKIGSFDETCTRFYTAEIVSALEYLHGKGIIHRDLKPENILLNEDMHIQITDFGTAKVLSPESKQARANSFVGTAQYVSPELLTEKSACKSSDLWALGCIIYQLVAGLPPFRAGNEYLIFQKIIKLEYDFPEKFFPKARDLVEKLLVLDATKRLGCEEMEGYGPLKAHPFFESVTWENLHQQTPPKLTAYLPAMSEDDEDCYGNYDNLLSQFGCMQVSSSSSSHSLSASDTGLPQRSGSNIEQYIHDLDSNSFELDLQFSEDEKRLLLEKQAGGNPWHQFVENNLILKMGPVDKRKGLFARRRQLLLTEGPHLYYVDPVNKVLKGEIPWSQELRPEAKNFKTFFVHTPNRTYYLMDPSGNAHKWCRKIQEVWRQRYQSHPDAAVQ
Briefly: PDK1 IMAP fluorescence polarization assay (inhibition of peptide substrate phosphorylation). It counts as biochemical. The conditions noted are these: Table 6; 10 nM PDK1 enzyme, 100 nM peptide substrate, 100 nM PIFtide, 2.5 uM ATP, 1.5 hours.
Regarding `CC(=O)c1ccc(-c2c[nH]c(C(=O)Nc3cccc(F)c3N3CCC(CN)CC3)n2)s1` [Compound 45, 4-(5-acetyl-2-thienyl)-N-[2-[4-(aminomethyl)-1-piperidinyl]-3-fluorophenyl]-1H-imidazole-2-carboxamide], the IC50 (in general, the midpoint of a concentration-inhibition curve) lay in the range of 1000 to 5000 nM.
The same measure, in the same setting: in the case of `NCC1CCN(c2c(F)cccc2NC(=O)c2nc(-c3cccc(S(N)(=O)=O)c3)c[nH]2)CC1` [Compound 31, N-[2-[4-(aminomethyl)-1-piperidinyl]-3-fluorophenyl]-4-[3-(aminosulfonyl)phenyl]-1H-imidazole-2-carboxamide] it was 51 to 250 nM; in that of `N[C@@H]1CCCN(c2c(F)cccc2NC(=O)c2nc(-c3ccnc(-n4cccn4)c3)c[nH]2)C1` [Compound 39, N-[2-(3(R)-amino-1-piperidinyl)-3-fluorophenyl]-4-[2-(1H-pyrazol-1-yl)-4-pyridinyl]-1H-imidazole-2-carboxamide], 251 to 1000 nM.
Still for that read-out and setting: under `COC(=O)c1cccc(-c2c[nH]c(C(=O)Nc3cccc(F)c3N3CCC(CN)CC3)n2)c1` [Compound 56, methyl 3-[2-[[[2-[4-(aminomethyl)-1-piperidinyl]-3-fluorophenyl]amino]carbonyl]-1H-imidazol-4-yl]benzoate] stands 51 to 250 nM.
Same read-out and setting: under `N[C@@H]1CCCN(c2c(F)cccc2NC(=O)c2nc(-c3ccnc(CO)c3)c[nH]2)C1` [Compound 26, N-[2-(3(R)-amino-1-piperidinyl)-3-fluorophenyl]-4-[2-(hydroxymethyl)-4-pyridinyl]-1H-imidazole-2-carboxamide] stands 1 to 50 nM; under `NCC1CCN(c2c(F)cccc2NC(=O)c2nc(-c3cc(NCc4ccc(F)cc4)ncn3)c[nH]2)CC1` [Compound 73, N-[2-[4-(aminomethyl)-1-piperidinyl]-3-fluorophenyl]-4-[6-[[(4-fluorophenyl)methyl]amino]-4-pyrimidinyl]-1H-imidazole-2-carboxamide], 51 to 250 nM; under `N[C@@H]1CCCN(c2c(F)cccc2NC(=O)c2nc(-c3ccc(F)cc3F)c[nH]2)C1` [Compound 38, N-[2-(3(R)-amino-1-piperidinyl)-3-fluorophenyl]-4-(2,4-difluorophenyl)-1H-imidazole-2-carboxamide], 251 to 1000 nM.
With `Cc1cc(-c2c[nH]c(C(=O)Nc3cccc(F)c3N3CCC[C@@H](N)C3)n2)cc(N)n1` [Compound 24, 4-(2-amino-6-methyl-4-pyridinyl)-N-[2-(3(R)-amino-1-piperidinyl)-3-fluorophenyl]-1H-imidazole-2-carboxamide], the 50% inhibitory concentration (IC50) lay in the range of 1 to 50 nM.
`NCC1CCN(c2c(F)cccc2NC(=O)c2nc(-c3cccc(Cl)c3)c[nH]2)CC1` [Compound 34, N-[2-[4-(aminomethyl)-1-piperidinyl]-3-fluorophenyl]-4-(3-chlorophenyl)-1H-imidazole-2-carboxamide]: the 50% inhibitory concentration (IC50) was in the range of 51 to 250 nM.
For `Cc1cc(-c2c[nH]c(C(=O)Nc3cccc(F)c3N3CCC(C(=O)NCC4(N)CCCC4)CC3)n2)ccn1` [Compound 88, N-[(1-aminocyclopentyl)methyl]-1-[2-fluoro-6-[[[4-(2-methyl-4-pyridinyl)-1H-imidazol-2-yl]carbonyl]amino]phenyl]-4-piperidinecarboxamide], the IC50 was 51 to 250 nM.
Regarding `NCC1CCN(c2c(F)cccc2NC(=O)c2nc(-c3cccc(CCO)c3)c[nH]2)CC1` [Compound 41, N-[2-[4-(aminomethyl)-1-piperidinyl]-3-fluorophenyl]-4-[3-(2-hydroxyethyl)phenyl]-1H-imidazole-2-carboxamide], the IC50 was in the range of 51 to 250 nM.
As for `Cc1cc(-c2c[nH]c(C(=O)Nc3cccc(F)c3N3CCC(C(=O)N4CCOCC4CO)CC3)n2)ccn1` (stereo not drawn) [Compound 80, N-[3-fluoro-2-[4-[[3-(hydroxymethyl)-4-morpholinyl]carbonyl]-1-piperidinyl]phenyl]-4-(2-methyl-4-pyridinyl)-1H-imidazole-2-carboxamide], the concentration for half-maximal inhibition (IC50) lay in the range of 251 to 1000 nM.
Same read-out and setting: under `CN(C)c1cc(-c2c[nH]c(C(=O)Nc3cccc(F)c3N3CCC(CN)CC3)n2)ccn1` [Compound 36, N-[2-[4-(aminomethyl)-1-piperidinyl]-3-fluorophenyl]-4-[2-(dimethylamino)-4-pyridinyl]-1H-imidazole-2-carboxamide] stands 251 to 1000 nM; under `NCC1CCN(c2c(F)cccc2NC(=O)c2nc(-c3cc(C(F)(F)F)n[nH]3)c[nH]2)CC1` [Compound 48, N-[2-[4-(aminomethyl)-1-piperidinyl]-3-fluorophenyl]-4-[3-(trifluoromethyl)-1H-pyrazol-5-yl]-1H-imidazole-2-carboxamide], 251 to 1000 nM.
Still for that read-out and setting: in the case of `CN(C)CCOc1ccccc1NC(=O)c1nc(-c2cnn(Cc3ccccc3)c2)c[nH]1` [Compound 6, N-[2-[2-(dimethylamino)ethoxy]phenyl]-4-[1-(phenylmethyl)-1H-pyrazol-4-yl]-1H-imidazole-2-carboxamide] it was 1000 to 5000 nM; in that of `Cc1cc(-c2c[nH]c(C(=O)Nc3cccc(F)c3N3CCC(C(=O)N(C)C)CC3)n2)ccn1` [Compound 61, 1-[2-fluoro-6-[[[4-(2-methyl-4-pyridinyl)-1H-imidazol-2-yl]carbonyl]amino]phenyl]-N,N-dimethyl-4-piperidinecarboxamide], 1000 to 5000 nM.
The same measure, in the same setting: under `CNCCCCNC(=O)C1CCN(c2c(F)cccc2NC(=O)c2nc(-c3ccnc(C)c3)c[nH]2)CC1` [Compound 85, 1-[2-fluoro-6-[[[4-(2-methyl-4-pyridinyl)-1H-imidazol-2-yl]carbonyl]amino]phenyl]-N-[4-(methylamino)butyl]-4-piperidinecarboxamide] stands 251 to 1000 nM.
For the compound `NCC1CCN(c2c(F)cccc2NC(=O)c2nc(-c3ccnc(NC4CC4)c3)c[nH]2)CC1` [Compound 42, N-[2-[4-(aminomethyl)-1-piperidinyl]-3-fluorophenyl]-4-[2-(cyclopropylamino)-4-pyridinyl]-1H-imidazole-2-carboxamide], the IC50 is 51 to 250 nM.
As for `Cc1cc(-c2c[nH]c(C(=O)Nc3cccc(F)c3N3CC4CCC(C3)N4)n2)ccn1` [Compound 54, N-[2-(3,8-diazabicyclo[3.2.1]oct-3-yl)-3-fluorophenyl]-4-(2-methyl-4-pyridinyl)-1H-imidazole-2-carboxamide], the IC50 was 1000 to 5000 nM.
Same read-out and setting: in the case of `Cc1cc(-c2c[nH]c(C(=O)Nc3cccc(F)c3N3CCC(C(=O)NC4CCCCC4N)CC3)n2)ccn1` (stereo not drawn) [Compound 84, N-(2-aminocyclohexyl)-1-[2-fluoro-6-[[[4-(2-methyl-4-pyridinyl)-1H-imidazol-2-yl]carbonyl]amino]phenyl]-4-piperidinecarboxamide] it was 51 to 250 nM.

Still in this experiment, the particulars now being: Table 10; compounds 97-132.
`CC1CCC(C(=O)NC2CCCCC2)CN1c1cc(-c2c[nH]c(C(=O)Nc3cc(N)ccc3N3CCC4(CCCNC4)CC3)n2)nc(N)n1` (racemic) [Compound 112, 1-(2-amino-6-(2-(5-amino-2-(2,9-diazaspiro[5.5]undecan-9-yl)phenylcarbamoyl)-1H-imidazol-4-yl)pyrimidin-4-yl)-N-cyclohexyl-6-methylpiperidine-3-carboxamide]: the IC50 lay within 1 to 50 nM.
With `CNc1nc(-c2c[nH]c(C(=O)Nc3cccc(F)c3N3CCC(CN)CC3)n2)cc(N2CCNC[C@H]2C)n1` [Compound 120, (R)—N-(2-(4-(aminomethyl)piperidin-1-yl)-3-fluorophenyl)-4-(2-(methylamino)-6-(2-methylpiperazin-1-yl)pyrimidin-4-yl)-1H-imidazole-2-carboxamide], the half-maximal inhibitory concentration (IC50) lay within 1 to 50 nM.
Still for that read-out and setting: in the case of `CNc1nc(-c2c[nH]c(C(=O)Nc3cccc(F)c3N3CCC(CN)CC3)n2)cc(N2CCO[C@H](CN)C2)n1` [Compound 123, (R)-4-(6-(2-(aminomethyl)morpholino)-2-(methylamino)pyrimidin-4-yl)-N-(2-(4-(aminomethyl)piperidin-1-yl)-3-fluorophenyl)-1H-imidazole-2-carboxamide] it was 1 to 50 nM; in that of `NCC1CCN(c2c(F)cccc2NC(=O)c2nc(-c3ccc(=O)n(C(F)F)c3)c[nH]2)CC1` [Compound 97, N-(2-(4-(aminomethyl)piperidin-1-yl)-3-fluorophenyl)-4-(1-(difluoromethyl)-6-oxo-1,6-dihydropyridin-3-yl)-1H-imidazole-2-carboxamide], 51 to 250 nM.
On the same count and under the same terms, in the case of `CNc1nc(-c2c[nH]c(C(=O)Nc3cccc(F)c3N3CCO[C@H](CN)C3)n2)cc(N2CC(C(=O)NC3CCCCC3)CCC2C)n1` (mixture of isomers) [Compound 111, 1-(6-(2-(2-((R)-2-(aminomethyl)morpholino)-3-fluorophenylcarbamoyl)-1H-imidazol-4-yl)-2-(methylamino)pyrimidin-4-yl)-N-cyclohexyl-6-methylpiperidine-3-carboxamide] it was 1 to 50 nM.
Consider `CNc1nc(-c2c[nH]c(C(=O)Nc3cccc(F)c3N3CCO[C@@H](CN)C3)n2)cc(N2C[C@@H](C(=O)NC3CCCCC3)CC[C@H]2C)n1` [Compound 117, (3S,6R)-1-(6-(2-(2-((S)-2-(aminomethyl)morpholino)-3-fluorophenylcarbamoyl)-1H-imidazol-4-yl)-2-(methylamino)pyrimidin-4-yl)-N-cyclohexyl-6-methylpiperidine-3-carboxamide], for which the IC50 was 1 to 50 nM.
Still for that read-out and setting: under `CNc1nc(-c2c[nH]c(C(=O)Nc3cccc(F)c3N3CCOC[C@H]3C)n2)cc(N2CC(C(=O)NC3CCCCC3)CCC2C)n1` (mixture of isomers) [Compound 122, N-cyclohexyl-1-(6-(2-(3-fluoro-2-((R)-3-methylmorpholino)phenylcarbamoyl)-1H-imidazol-4-yl)-2-(methylamino)pyrimidin-4-yl)-6-methylpiperidine-3-carboxamide] stands 1 to 50 nM.
